Experimental data reported in ChEMBL document CHEMBL4402555, “Impact of the structure-activity relationship of AHL analogues on quorum sensing in Gram-negative bacteria” (Bioorg Med Chem, 2020).
pEC50, pIC50: −log10 of the molar value.

What was measured:
[1] = target: T1, Transcriptional activator protein LasR (Pseudomonas aeruginosa (strain ATCC 15692 / PAO1 / 1C / PRS 101 / LMG12228)) (UniProt P25084); experiment: Antagonist activity at LasR in Pseudomonas aeruginosa PAO-JP2 harboring plasI-LVAgfp assessed as inhibition of GFP expression by measuring reduction in fluorescence intensity at 100 uM incubated for 6 hrs in presence of AI1 by fluorescence based competitive assay relative to control
T1 sequence (whole entry): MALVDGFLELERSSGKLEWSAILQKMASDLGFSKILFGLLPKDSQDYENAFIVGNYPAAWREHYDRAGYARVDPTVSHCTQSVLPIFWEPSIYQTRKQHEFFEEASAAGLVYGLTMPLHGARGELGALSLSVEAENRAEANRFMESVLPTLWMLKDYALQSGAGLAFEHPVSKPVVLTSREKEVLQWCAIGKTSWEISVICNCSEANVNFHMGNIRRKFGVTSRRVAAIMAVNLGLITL

[2] = target: T2, Transcriptional activator protein LuxR (Aliivibrio fischeri, UniProt P12746); experiment: Antagonist activity at Aliivibrio fischeri LuxR by luminescence method
T2 sequence (P12746 whole entry): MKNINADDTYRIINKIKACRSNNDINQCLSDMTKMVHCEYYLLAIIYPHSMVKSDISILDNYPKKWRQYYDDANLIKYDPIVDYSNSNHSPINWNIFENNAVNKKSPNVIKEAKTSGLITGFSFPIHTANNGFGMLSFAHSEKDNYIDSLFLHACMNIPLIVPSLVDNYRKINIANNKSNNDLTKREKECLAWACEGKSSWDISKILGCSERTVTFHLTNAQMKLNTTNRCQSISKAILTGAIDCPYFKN

[3] = target: T3, Transcriptional activator protein LasR (Pseudomonas aeruginosa (strain ATCC 15692 / PAO1 / 1C / PRS 101 / LMG12228), UniProt P25084); experiment: Antagonist activity at LasR in Pseudomonas aeruginosa harboring plasI-LVAgfp assessed as inhibition of GFP production incubated for 6 hrs by fluorescence method
T3 sequence (P25084 whole entry): T1 sequence (whole entry)

[4] = Antagonist activity at LasR in Escherichia coli JLD271 harboring pSC11/ pJN105L using CPRG as substrate incubated for 4 hrs by Miller assay
[5] = target: T3, Transcriptional activator protein LasR; experiment: Antagonist activity at Pseudomonas aeruginosa LasR transfected with lasB-GFP by […] method
[6] = Activation of LasR in Escherichia coli JLD271 harboring pSC11/pJN105L using CPRG as substrate incubated for 4 hrs by Miller assay method
[7] = Inhibition of LasR in Escherichia coli JLD271 harboring pSC11/pJN105L using CPRG as substrate incubated for 4 hrs by Miller assay method
[8] = target: T2, Transcriptional activator protein LuxR; experiment: Agonist activity at Aliivibrio fischeri LuxR by luminescence method
[9] = target: T3, Transcriptional activator protein LasR; experiment: Activation of LasR in Pseudomonas aeruginosa PAO-JP2 harboring plasI-LVAgfp incubated for 6 hrs by fluorescence method
[10] = target: T3, Transcriptional activator protein LasR; experiment: Inhibition of LasR in Pseudomonas aeruginosa PAO-JP2 harboring plasI-LVAgfp incubated for 6 hrs by fluorescence method
[11] = target: T2, Transcriptional activator protein LuxR; experiment: Antagonist activity at Aliivibrio fischeri ES114 LuxR after 4 to 8 hrs by luminescence method
[12] = Inhibition of quorum sensing system in Pseudomonas aeruginosa
[13] = target: T4, Regulatory protein SdiA (Escherichia coli (strain K12)) (UniProt P07026); experiment: Inhibition of sdiA in Escherichia coli K-12 assessed as reduction in protein-mediated transition from microcolonies to mature biofilm at 400 uM incubated for 22 hrs by crystal violet staining assay relative to control
T4 sequence (whole entry): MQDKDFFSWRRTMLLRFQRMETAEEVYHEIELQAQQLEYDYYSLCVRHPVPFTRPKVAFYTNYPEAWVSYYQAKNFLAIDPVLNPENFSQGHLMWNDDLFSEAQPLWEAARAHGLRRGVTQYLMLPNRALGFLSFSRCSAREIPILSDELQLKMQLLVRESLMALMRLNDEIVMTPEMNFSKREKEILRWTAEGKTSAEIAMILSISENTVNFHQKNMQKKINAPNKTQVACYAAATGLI

[14] = test system: Chromobacterium violaceum; experiment: Inhibition of CviI/CviR in Chromobacterium violaceum ATCC 31532 assessed as reduction in violacein production at 40 uM incubated for 24 hrs relative to control
Pseudomonas aeruginosa [15] = experiment: Inhibition of LasI/LasR in Pseudomonas aeruginosa ATCC 9027 assessed as reduction in protein-mediated transition from microcolonies to mature biofilm at 400 uM incubated for 22 hrs by crystal violet staining assay relative to control
[16] = test system: Pseudomonas aeruginosa PAO1; experiment: Inhibition of LasI/LasR in Pseudomonas aeruginosa PAO1 assessed as reduction in swarming motility at 400 uM incubated for 18 hrs relative to control
[17] = Inhibition of CviI/CviR in Chromobacterium violaceum ATCC 31532 assessed as reduction in violacein production incubated for 24 hrs
Pseudomonas aeruginosa [18] = experiment: Inhibition of LasI/LasR in Pseudomonas aeruginosa ATCC 15422 assessed as reduction in protein-mediated transition from microcolonies to mature biofilm at 400 uM incubated for 22 hrs by crystal violet staining assay relative to control
[19] = test system: Pseudomonas aeruginosa PAO1; experiment: Inhibition of LasI/LasR in Pseudomonas aeruginosa PAO1 assessed as reduction in protein-mediated transition from microcolonies to mature biofilm at 400 uM incubated for 22 hrs by crystal violet staining assay relative to control
HL = experiment: Cytotoxicty against human HL cells at 100 uM after 24 hrs by CellTiter Glo assay relative to control; type: cell-based
RAW264.7 = experiment: Cytotoxicty against mouse RAW264.7 cells at 100 uM after 24 hrs by CellTiter Glo assay relative to control; type: cell-based; conditions: raw264.7, 24 h
[20] = target: T2, Transcriptional activator protein LuxR; experiment: Inhibition of Aliivibrio fischeri LuxR by luminescence method
[21] = Inhibition of quorum sensing system in Pseudomonas aeruginosa transfected with lasB-lacZ in presence of PA1
[22] = target: T1, Transcriptional activator protein LasR (Pseudomonas aeruginosa (strain ATCC 15692 / PAO1 / 1C / PRS 101 / LMG12228)); experiment: Antagonist activity at LasR in Pseudomonas aeruginosa PAO1 assessed as inhibition of pyocyanin production at 50 uM incubated for 13 hrs relative to control

CCCCCCCCCC(=O)CC(=O)CCN[C@H]1CCC[C@@H]1O
inhibition [1]: 70%

CCCC(=O)CS(=O)(=O)NC1CCOC1=O (stereo not given)
pIC50 [2]: 4.40

CCCCCCCCCNC(=O)CC(=O)Cc1ccccc1
pIC50 [3]: 4.82 | pIC50 [4]: 5.70

O=C(CC(=O)NC1CCOC1=O)Cc1ccccc1Cl (stereo not given)
pIC50 [2]: 5.22

CCCCCCCSCC(=O)N[C@H]1CCOC1=O
pIC50 [5]: 5.22

O=C1OCCC1NS(=O)(=O)CCCc1ccccc1 (stereo not given)
pIC50 [2]: 4.70

O=C(CCc1ccc(Br)cc1)N[C@H]1CCOC1=O
pEC50 [6]: 5.08 | pIC50 [7]: 6.80

O=C(CC(=O)N[C@H]1CCOC1=O)CC1CCCC1
pEC50 [8]: 6.60

CCCCS(=O)(=O)NC1CCOC1=O (stereo not given)
pIC50 [2]: 4.92

O=C(Cc1ccc(C(F)(F)F)cc1)N[C@H]1CCOC1=O
pEC50 [9]: 3.85 | pIC50 [10]: 5.52 | pIC50 [11]: 6.22 | pEC50 [6]: 6.19

CCC(=O)CC(=O)NC1CCCCC1=O (stereo not given)
pEC50 [9]: < 3.70 | pIC50 [10]: < 4.00 | pEC50 [6]: 6.62

CCC(=O)CC(=O)Nc1cccc(OC)c1
pIC50 [10]: < 3.70 | pEC50 [6]: < 4.00 | pIC50 [7]: 5.33

COc1ccc(CC(=O)CC(=O)NC2CCOC2=O)cc1 (stereo not given)
pIC50 [2]: 5.52

CCCCCCCCCSCC(=O)N[C@H]1CCOC1=O
pIC50 [5]: 4.30

Cc1ccc(SCC(=O)N[C@H]2CCOC2=O)cc1
pIC50 [5]: 4.30

O=C(Cc1ccccc1)CS(=O)(=O)NC1CCOC1=O (stereo not given)
pIC50 [2]: 4.40

CCCCCCCCC(=O)CC(=O)Nc1ccccc1
pIC50 [12]: 5.26

CCCCCCCCCC(=O)Oc1c(-c2ccc(OC)cc2)oc2ccccc2c1=O
inhibition [13]: 14.3% | inhibition [14]: 83.5% | inhibition (Pseudomonas aeruginosa [15]): 22.5% | inhibition [16]: 69.8% | pIC50 [17]: 4.86 | inhibition (Pseudomonas aeruginosa [18]): 28.1% | inhibition [19]: 11.6%

Cc1ccc(CC(=O)CC(=O)NC2CCOC2=O)cc1 (stereo not given)
pIC50 [2]: 5.40

O=C(COc1cccc(Br)c1)N[C@H]1CCSC1=O
pEC50 [9]: 5.38 | pEC50 [6]: 7.89

CCCCCS(=O)(=O)NC1CCOC1=O (stereo not given)
pIC50 [2]: 5.70

O=C(CCCc1ccccc1)N[C@H]1CCOC1=O
pIC50 [10]: 3.76 | pIC50 [7]: 6.00

O=C(CC(=O)NC1CCOC1=O)Cc1ccccc1 (stereo not given)
pIC50 [2]: 5.70

O=C(Cc1ccc(-c2ccccc2)cc1)N[C@H]1CCOC1=O
pIC50 [11]: 5.96

CCC(=O)CC(=O)Nc1ccccc1O
pEC50 [9]: 4.77 | pEC50 [6]: 7.02

CCC(=O)Oc1c(-c2ccccc2Cl)oc2ccccc2c1=O
inhibition [13]: 51.3% | inhibition [14]: 99.7% | inhibition (Pseudomonas aeruginosa [15]): 27.2% | inhibition [16]: 72.1% | pIC50 [17]: 5.02 | Activity (HL): 11.2% | inhibition (Pseudomonas aeruginosa [18]): 11.2% | Activity (RAW264.7): 97.7% | inhibition [19]: 42.3%

O=C(CC(=O)NC1CCOC1=O)Cc1ccc(Br)cc1 (stereo not given)
pIC50 [2]: 5.70

O=C(Nc1ccccc1NC(=O)c1cccc(Cl)c1)c1cccc(Cl)c1
pIC50 [7]: 4.15

O=C(Cc1ccc(Br)cc1)N[C@H]1CCOC1=O
pIC50 [11]: 5.43 | pIC50 [7]: 5.46

CCCCCCCCS(=O)(=O)NC1CCOC1=O (stereo not given)
pIC50 [2]: 5.00

CCCCCCCCCNC(=O)CC(=O)c1ccccc1
pIC50 [7]: 5.64

O=C(CC(=O)NC1CCOC1=O)Cc1ccc(C(F)(F)F)cc1 (stereo not given)
pIC50 [2]: 5.00

O=C1OCCC1NS(=O)(=O)CCc1ccccc1 (stereo not given)
pIC50 [2]: 5.52

O=C(Cc1ccc(I)cc1)N[C@H]1CCOC1=O
pIC50 [11]: 6.05

O=C(COCc1ccccc1)NC1CCOC1=O (stereo not given)
pIC50 [2]: 5.52 to 5.70

O=C(CC(=O)N[C@H]1CCOC1=O)Cc1ccccc1
pIC50 [7]: 5.55

O=C(Cc1ccc(Cl)cc1)N[C@H]1CCOC1=O
pIC50 [11]: 5.39

CCCCCCCCCC(=O)N[C@H]1CCSC1=O
pIC50 [20]: 6.89

O=C(CC(=O)NC1CCOC1=O)Cc1ccc(Cl)cc1 (stereo not given)
pIC50 [2]: 5.52

O=C(CCCc1ccccc1)NC1CCOC1=O (stereo not given)
pIC50 [2]: 5.52 to 5.70

O=C(CC(=O)N[C@H]1CCOC1=O)CC1CCCCC1
pEC50 [8]: 5.96

CCCCCC(=O)CC(=O)N[C@H]1CCOC1=O
pEC50 [6]: 5.35 | pIC50 [7]: 7.11

O=C1OCCC1NS(=O)(=O)Cc1ccccc1 (stereo not given)
pIC50 [2]: 4.40

N#CSCC(=O)CC(=O)N[C@H]1CCOC1=O
pEC50 [9]: 5.59 | pEC50 [6]: 7.77

O=C(CC(=O)NC1CCOC1=O)Cc1cccc(Cl)c1 (stereo not given)
pIC50 [2]: 5.40

O=C(CC(=O)NC1CCOC1=O)Cc1ccc(F)cc1 (stereo not given)
pIC50 [2]: 5.40

CCCCCCCCCC(=O)CC(=O)CCNC1CCCCC1=O (stereo not given)
inhibition [1]: 35%

O=C(Cc1ccc([N+](=O)[O-])cc1)N[C@H]1CCOC1=O
pIC50 [11]: 6.00

CCCCCCCCCC(=O)NC1CCCC1 [N-CYCLOPENTYLDECANAMIDE]
pIC50 [10]: < 4.30 | pIC50 [21]: 4.10

CCCCCCC[S+]([O-])CC(=O)NC1CCOC1=O (stereo not given)
pIC50 [5]: 4.30

CC(C)CC(=O)CC(=O)N[C@H]1CCOC1=O
pEC50 [8]: 6.30

O=C(CCCC1CCCCC1)NC1CCOC1=O (stereo not given)
pEC50 [8]: < 5.22

CCC(=O)CC(=O)Nc1ccccc1
pIC50 [10]: 5.01 | pEC50 [6]: 6.04

CCCCCCCS(=O)(=O)NC1CCOC1=O (stereo not given)
pIC50 [2]: 5.05

CCCCCCCCCS(=O)(=O)NC1CCOC1=O (stereo not given)
pIC50 [2]: 4.40

O=C(CSCc1ccccc1)NC1CCOC1=O (stereo not given)
pIC50 [2]: 5.52 to 5.70

CCCCCCS(=O)(=O)NC1CCOC1=O (stereo not given)
pIC50 [2]: 5.19

CCCCCCC(=O)N[C@H]1CCOC1=O
pIC50 [10]: < 4.00 | pIC50 [11]: 5.85 | pIC50 [7]: 5.55

O=C(NCc1cc(Br)cc(Br)c1OC(=O)c1ccccc1[N+](=O)[O-])c1ccccc1Cl
pEC50 [6]: 8.11

CCCCCCCCC(=O)CC(=O)Nc1cccc(OC)c1
inhibition [22]: 74%

O=C(CCCOc1ccc(Cl)cc1)N[C@H]1CCOC1=O
pEC50 [6]: 4.48 | pIC50 [7]: 6.31
